The results in this text go back to publication PMC8881077 (Journal of Enzyme Inhibition and Medicinal Chemistry, 2022).

Broadly, the viability is the share of living cells, or the viability signal relative to a control. A lower viability goes with a greater loss of cells.

In data set [1] the test system is normal human hepatocytes cell line (LO2). Briefly: Hepatoprotective activity on H2O2-induced LO2 cell injury. The data set is classed as cell-based. Particulars: LO2 cells, 1000 μM H2O2. Here is the method:
(§1) The anti-AD drug tacrine has been forced to withdraw due to severe hepatotoxicity. Thus, the hepatotoxicity of compounds 5f on normal human hepatocytes cell line (LO2) was evaluated using MTT assay. […] Furthermore, the hepatoprotective activity of compound 5f on H2O2-induced live injury was tested using an MTT assay. […]
• Materials. LO2 cells purchased from Wuhan Punosi Life Technology Co., Ltd. 30% H2O2, Trichloroacetic acid (TCA), SRB, DMEM medium (HyClone), Foetal bovine serum (LNSER, article number: S711-001S), Penicillin streptomycin mixture (double antibiotic) (Solarbio), 0.25% trypsin-EDTA digestive juice (Solarbio), DMSO (Solarbio), Potassium dihydrogen phosphate (Xiyu Science Co., Ltd., CAS: 7778-77-0); Ultra-clean workbench (Wuxi Easy Purification Equipment Co., Ltd., model: SW-CJ-VS2); Carbon dioxide incubator (Esco, model: 2014-88759); […]; • Experiment method. (a) Cell culture: cultured in DMEM medium containing 10% FBS and 1% double-antibody, placed in 37 °C, 5% CO2 constant temperature and humidity incubator, changed every 2 days, subcultured when cells were 90% confluent. (b) Effect of compounds on LO2 proliferation by SRB assay: Discard the culture medium, fix the cells with 10% (m/v) trichloroacetic acid (TCA) 100 μL, and place in a refrigerator at 4 °C for 1 h. The fixing solution was discarded, washed 5 times with distilled water, and dried in an oven. Adding 100 μL SRB solution to each well after drying, and leave it at room temperature for 10-30 min. Discard the supernatant, wash it 5 times with 1% glacial acetic acid water, air dry. Finally, add 100 μL/well of 10 mmol/L Tris-based buffer solution and oscillate on a plate shaker. The OD value was measured at 515 nm using a microplate reader. Cell viability (%) = OD test well/OD blank control well x 100%. (c) Effect of compounds on H2O2-induced LO2 cell injury by SRB assay. […] After treatment with H2O2 for 6h, the survival rate was measured by the SRB method.

The test system is the same in data set [2]. Briefly: Hepatotoxicity on LO2 cells. The data set is classed as cell-based. As to conditions: 2.5 μM to 80.0 μM. As to the method: as §1
• Materials. LO2 cells purchased from Wuhan Punosi Life Technology Co., Ltd. 30% H2O2, Trichloroacetic acid (TCA), SRB, DMEM medium (HyClone), Foetal bovine serum (LNSER, article number: S711-001S), Penicillin streptomycin mixture (double antibiotic) (Solarbio), 0.25% trypsin-EDTA digestive juice (Solarbio), DMSO (Solarbio), Potassium dihydrogen phosphate (Xiyu Science Co., Ltd., CAS: 7778-77-0); Ultra-clean workbench (Wuxi Easy Purification Equipment Co., Ltd., model: SW-CJ-VS2); Carbon dioxide incubator (Esco, model: 2014-88759); […]; • Experiment method. (a) Cell culture: cultured in DMEM medium containing 10% FBS and 1% double-antibody, placed in 37 °C, 5% CO2 constant temperature and humidity incubator, changed every 2 days, subcultured when cells were 90% confluent. […] The OD value was measured at 515 nm using a microplate reader. […] After treatment with H2O2 for 6h, the survival rate was measured by the SRB method.

The compound `CCN(CCCCCOc1cc(O)c2c(c1)OC(c1ccc(O)cc1)CC2=O)Cc1ccccc1` (stereo not shown) [Compound 5f, 7-((5-(benzyl(ethyl)amino)pentyl)oxy)-5-hydroxy-2–(4-hydroxyphenyl)chroman-4-one] yielded a viability at 5 µM in data set [1] (L02, 5.0 μM) of 65.2%. The compound further returned a viability at 10 µM in data set [1] (L02, 10.0 μM) of 69.7%. In data set [1] (L02, 20.0 μM), the viability at 20 µM stood at 79.4%. In data set [2], the “LO2 cell viability (hepatotoxicity)” value is reported as “did not show an obvious change until the concentration increased to 40.0 μM”.
